# Experimental data: US12539284B2, “Aminoxy acid-based anti-cancer stem cell compounds and methods thereof” (Westlake University, priority 2019, dated 2026)
# Like-named read-outs stand apart in the source and are kept apart here.
# Legend:
# [1] = tested on: HEY A8 CSCs (HEY A8 SP); assay: Toxicity / cell viability (CellTiter-Glo) on HEY A8 spheres (CSCs); format: cell-based, human; conditions: for selectivity towards ovarian CSCs over ovarian cancer cells and normal cells: from IC50 values, FIG. 4 and Table 1
# Description: Aminoxy acids were synthesized by the standard peptide coupling procedures. The CSCs are obtained by spheroids culturing under suspension condition. It is confirmed that these spheres indeed contain significant higher population of cells with CD133 antigenic phenotype, which has been reported can represent ovarian CSCs (FIG. 2). After treatment with compounds for 48 h, the cell viability of CSCs was measured by using CELLTITER-GLO® luminescent reagent. Compound sff-3-85 (“Example 2”) were used at the dose of 10 μM, all the other compounds were used at the concentration of 5 μM. All experiments were performed three times and data is presented as mean±SD.
# (§1) Cell Cultures Human ovarian carcinoma cell lines HEY A8 and SKOV3 were gifts from Professor Alice Wong's group (The University of Hong Kong). Cells were grown in Dulbecco's Modified Eagle (DMEM) medium supplemented with 10% FBS and 1% penicillin/streptomycin at 37° C. in a humidified atmosphere containing […] CO2. Isolation and culture of spheres were performed in serum-free stem-cell-selective condition as described in literature Ip etl. Oncogene 2014, 5, 9133-9149. Briefly, 1-2 weeks after plating, non-adherent spherical clusters of cells could be observed and were separated from single cells by low speed centrifugation. After 8th to 10th passages, the non-adherent spherical clusters of cells appeared as distinct spheres. Using this selection condition, HEY A8 spheres (HEY A8 SP) or SKOV3 spheres (SKOV3 SP) could be enzymatically dissociated and reformed into spheres within 3 days under stem-cell-selective condition. To allow differentiation, dissociated sphere cells were plated on tissue culture plates in medium (MCDB 105:M199=1:1) supplemented with 10% FBS and 1% PS.
# (§2) HEY A8 SP cells (5×10^4) were plated in triplicate in 10 mL serum-free MCDB105 medium in 100-mm Petri dish for 7 days to form spheres. Compound at the final concentration of 5 μM was added. The cells were further incubated at 37° C. for 48 h. After that cells were collected by centrifugation and the medium was removed. Then 100 μL CellTiter-Glo® Luminescent Cell Viability reagent was added into each tube, which was incubated for 10 min with shaking. After that, the reagent was transferred into 96-well plates and cell viability was measured using a microplate reader (SpectraMax 340PC 384, Molecular Devices).
# as §2, with “A8 SP cells or SKOV3” for “A8”, “Then drugs” for “Compound”, “different” for “the final”, “were” for “of 5 μM was”, “μL of” for “μL”
# [2] = tested on: HEY A8 cancer cells; assay: Cell viability (CellTiter-Glo) on adherent HEY A8 cancer cells; format: cell-based, human; conditions: read-out: IC50 Cancer Cell HeyA8
# Description: as §1
# (§3) HEY A8 or SKOV3 cancer Cells were plated in triplicate in 0.1 mL full medium in 96-well plates for 24 h. After that, the medium was changed to the fresh prepared medium with various concentrations of compounds. Cells were incubated for another 48 h. Then the cell viability was measured by CellTiter-Glo® Luminescent Cell Viability reagent according to the manufacture's instruction. The luminescence at 550 nm was measured using a microplate reader (SpectraMax 340PC 384, Molecular Devices).
# [3] = tested on: MDCK; assay: Toxicity against normal cell line MDCK; format: cell-based
# Excerpt: (§4) Fourteen compounds including aminoxy acid monomers and dipeptides have been identified to show toxicity against HEY A8 CSCs. The half maximal inhibitory concentration (IC50) values of compounds sff-2-112, sff-2-124, sff-2-132 and sff-2-100 towards adherent cancer HEY A8, SKOV3 cells and CSCs were further determined. […] Especially compound sff-2-132, its selectivity to CSCs is up to 60-fold higher than that to cancer cells. Their toxicity against other normal cell lines NIH3T3, HEK293 and MDCK were also tested and the IC50 values were summarized in Table 1.
# [4] = tested on: NIH3T3; assay: Toxicity against normal cell line NIH3T3; format: cell-based
# Excerpt: as §4
# [5] = tested on: HEK293; assay: Toxicity against normal cell line HEK293; format: cell-based
# Excerpt: as §4
# [6] = tested on: Huh 7 CD133- cells; assay: Cell viability (CellTiter-Glo) of sorted Huh 7 CD133- cells; format: cell-based; conditions: 48 h, different doses
# Description: (§5) Huh-7 cells were stained with PE-conjugated CD133 antibody (HCC cancer stem cell marker) according to the manufacturer's instructions. Then CD133^+ cells (Huh 7 cancer stem cells) and CD133− cells were sorted by flow cytometry and seeded into 96-well plate with fresh DMEM medium. After 24 h, medium was changed to fresh medium with compound sff-2-112 (“Example 1”) or sff-2-124 (“Example 3”) at different doses. After 48 h, cell viability was analyzed by CellTiter-Glo luminescent agent.
# [7] = tested on: SKOV3 cancer cells; assay: Cell viability (CellTiter-Glo) on adherent SKOV3 cancer cells; format: cell-based, human; conditions: 48 h incubation
# Description: as §1, §3
# [8] = tested on: Huh 7 cancer stem cells (CD133+); assay: Cell viability (CellTiter-Glo) of sorted Huh 7 CD133+ cells; format: cell-based; conditions: 48 h
# Description: as §5
# [9] = tested on: HEY A8 CSCs; assay: Apoptosis, Annexin V / PI flow cytometry, CSCs; format: cell-based, human; conditions: 5 μM, 2 days; DMSO 4.92%
# Description: A suspension of HEY A8 cells at the concentration of 5×10^4 cells/mL in DMEM medium were seeded into 60-mm cell culture dishes. Cells were incubated at 37° C. in a humidified atmosphere containing 5% CO2 for 24 h followed by the addition of 4 mL fresh medium or medium containing compound sff-2-112 (“Example 1”) or sff-2-132 (“Example 4”) at different concentration. Medium containing 0.1% DMSO was used as negative control. After 2 days, the medium was aspirated and cells were washed with cold PBS twice, and then stained with PI and Annexin V according to the manufacture's instruction (Dead Cell Apoptosis Kit with Annexin V Alexa Fluor™ 488 & Propidium Iodide, Thermo Fisher). Cells were analyzed by flow cytometry (BD FACS CantoII Analyzer).
# [10] = tested on: HEY A8 CSCs; assay: In vivo tumor seeding ability of pretreated HEY A8 CSCs; conditions: CSCs pretreated 2 days in vitro, 10^6 cells injected subcutaneously in mice, 25 days
# Description: In vivo tumor seeding ability of cells after treatment with compound sff-2-112 (“Example 1”) or sff-2-132 (“Example 4”) was evaluated. Taxol was used as a negative control. For this experiment, HEY A8 CSCs were pretreated with sff-2-112 (“Example 1”), sff-2-132 (“Example 4”) or Taxol for 2 days in suspension medium, respectively. Then cells were allowed to proliferate in full medium in the absence of drugs for 10 days. After that, 10^6 cells were injected into mice subcutaneously. Tumor size was measured for 25 days after injection.
# [11] = tested on: HEY A8 cells; assay: Population of CD133+ cells by flow cytometry (PE-conjugated CD133 antibody); format: cell-based, human; conditions: Paclitaxel 100 nM, 3 days; control 21.8%
# Description: CD133 has been reported to be a marker of ovarian CSCs. After cells treated with synthetic molecule, the population of CD133^+ cells were measured. HEY A8 cells were treated with taxol (100 nM), compound sff-2-112 (“Example 1”) or sff-2-132 (“Example 4”) at the concentration of 15 μM. Medium containing 0.1% DMSO was used as a negative control.
# A suspension of HEY A8 cells at the concentration of 2.5×10^4 cells/mL in DMEM medium were seeded into 60-mm cell culture dishes. Cells were incubated at 37° C. in a humidified atmosphere containing 5% CO2 for 24 h, followed by the addition of 4 mL fresh medium or medium containing Paclitaxel (100 nM), sff-2-112 (15 μM) or compound sff-2-132 (15 μM). Medium containing 0.1% DMSO was used as a negative control. After 3 days, the medium was removed and cells were washed with cold PBS twice, and then stained with PE-conjugated CD133 antibody according to the manufacture's instruction. The fluorescence was analyzed by flow cytometry.
smiles,measurement,setting,value
O=C(NO[C@H](COCc1ccccc1)C(=O)NOc1ccccc1)c1cc(C(F)(F)F)cc(C(F)(F)F)c1 [FPM-1-187],cell viability of HEY A8 CSCs (toxicity),"[1]; compound 5 μM, 48 h",significantly decreased the cell viability
CC(OCc1ccccc1)[C@@H](ONC(=O)c1cc(C(F)(F)F)cc(C(F)(F)F)c1)C(=O)Nc1ccccc1 (stereo partly shown) [sff-3-98-2],cell viability of HEY A8 CSCs (toxicity),"[1]; compound 5 μM, 48 h",significantly decreased the cell viability
CC(C)(C)OC[C@@H](ONC(=O)c1cc(C(F)(F)F)cc(C(F)(F)F)c1)C(=O)Nc1ccccc1 [sff-3-100],cell viability of HEY A8 CSCs (toxicity),"[1]; compound 5 μM, 48 h",significantly decreased the cell viability
CC(C)(C)Oc1ccc(C[C@@H](ONC(=O)c2cc(C(F)(F)F)cc(C(F)(F)F)c2)C(=O)Nc2ccccc2)cc1 [sff-3-101],cell viability of HEY A8 CSCs (toxicity),"[1]; compound 5 μM, 48 h",significantly decreased the cell viability
O=C(NO[C@H](Cc1cc2ccccc2[nH]1)C(=O)Nc1ccccc1)c1cc(C(F)(F)F)cc(C(F)(F)F)c1 [Amy-1-8],cell viability of HEY A8 CSCs (toxicity),"[1]; compound 5 μM, 48 h",significantly decreased the cell viability
C[C@H](ONC(=O)c1cc(C(F)(F)F)cc(C(F)(F)F)c1)C(=O)Nc1ccccc1 [sff-3-85],cell viability of HEY A8 CSCs (toxicity),"[1]; compound 10 μM, 48 h",significantly decreased the cell viability
O=C(NO[C@H](COCc1ccccc1)C(=O)NO[C@@H](Cc1ccccc1)C(=O)Nc1ccccc1)c1cc(C(F)(F)F)cc(C(F)(F)F)c1 [sff-2-100],IC50,"[2]; Homo sapiens, HEY A8, 48 h incubation",22.4 ± 1 µM
same,IC50,"[3]; Canis lupus familiaris, MDCK",18 ± 0.7 µM
same,rank of toxicity among the 14 molecules on HEY A8 CSCs,"[1]; 5 μM, 48 h",highest toxicity
same,IC50,"[1]; Homo sapiens, HEY A8 spheres, 48 h incubation, read-out: IC50 Cancer Stem Cell HeyA8 SP",2.8 ± 0.9 µM
same,cell viability of HEY A8 CSCs (toxicity),"[1]; compound 5 μM, 48 h",significantly decreased the cell viability
same,selectivity towards ovarian CSCs over ovarian cancer cells and normal cells,[1],selectively induce the death of ovarian CSCs
same,IC50,"[4]; Mus musculus, NIH3T3",2.8 ± 0.9 µM
same,IC50,"[5]; Homo sapiens, HEK293",18.3 ± 0.6 µM
CC(C)C[C@@H](ONC(=O)c1cc(C(F)(F)F)cc(C(F)(F)F)c1)C(=O)Nc1ccccc1 [sff-2-124],IC50,[2]; 48 h incubation,20.8 ± 0.9 µM
same,death of Huh 7 CD133- cells,[6],induce the death
same,IC50,[3],13.2 ± 0.9 µM
same,cell viability of HEY A8 CSCs (toxicity),"[1]; compound 5 μM, 48 h",significantly decreased the cell viability
same,selectivity towards ovarian CSCs over ovarian cancer cells and normal cells,[1],selectively induce the death of ovarian CSCs
same,IC50,[7],18.6 ± 5.1 µM
same,toxicity to huh7 CD133+ population compared with CD133- cells,[8],higher
same,death of Huh 7 CD133+ cells,[8]; different doses,induce the death
same,IC50,[4],15.1 ± 0.5 µM
same,IC50,[5],67.2 ± 4.2 µM
O=C(NO[C@H](COCc1ccccc1)C(=O)Nc1ccccc1)c1ccc(C(F)(F)F)cc1 [sff-3-91],cell viability of HEY A8 CSCs (toxicity),"[1]; compound 5 μM, 48 h",significantly decreased the cell viability
CC(C)COC(=O)[C@@H](COCc1ccccc1)ONC(=O)c1cc(C(F)(F)F)cc(C(F)(F)F)c1 [sff-3-87],cell viability of HEY A8 CSCs (toxicity),"[1]; compound 5 μM, 48 h",significantly decreased the cell viability
O=C(NO[C@H](COCc1ccccc1)C(=O)Nc1ccc(F)cc1)c1cc(C(F)(F)F)cc(C(F)(F)F)c1 [sff-3-86],"Annexin V positive cells, CSCs",[9],30.4%
same,cell viability of HEY A8 CSCs (toxicity),"[1]; compound 5 μM, 48 h",significantly decreased the cell viability
CCC(C)[C@@H](ONC(=O)c1cc(C(F)(F)F)cc(C(F)(F)F)c1)C(=O)Nc1ccccc1 (stereo partly shown) [Amy-1-4],cell viability of HEY A8 CSCs (toxicity),"[1]; compound 5 μM, 48 h",significantly decreased the cell viability
"CC(=O)O[C@H]1C(=O)[C@@]2(C)[C@H]([C@H](OC(=O)c3ccccc3)[C@]3(O)C[C@H](OC(=O)[C@H](O)[C@@H](NC(=O)c4ccccc4)c4ccccc4)C(C)=C1C3(C)C)[C@]1(OC(C)=O)CO[C@@H]1C[C@@H]2O [paclitaxel, reference compound]",tumor-seeding ability / tumor size of pretreated cells,[10],resistant
same,population of CD133+ cells after treatment,[11],31.6%
